Data: patent US8173697B2, “Alkoxyalkyl-substituted cyclic keto-enols” (Bayer CropScience AG, priority 2006, dated 2012)

Columns and labels:
Assay type in all cases: in vivo
[1] = system: Aphis gossypii; assay: Aphis gossypii test (Example 12); details: for Destruction (%) after 6 d: no additive
Method: For application with ammonium salts or phosphonium salts and penetration promoters (rapeseed oil methyl ester 500 EW) these are in each case added in a concentration of 1000 ppm a.i. to the spray liquor.
(§1) After the desired time the destruction in % is determined.

[2] = system: Spring wheat; assay: Greenhouse container trials with cereals, post-emergence, with and without safener; details: 10 days after application
Method: (§2) Seeds of monocotyledonous and dicotyledonous weed plants and crop plants are placed in sandy loam soil in wood fibre pots or in plastic pots and are covered with earth and cultivated in a greenhouse and also, during the vegetation period, outdoors, outside of the greenhouse, under good growth conditions. 2 to 3 weeks after sowing, the trial plants are treated at the one- to three-leaf stage. The test compounds, formulated as wettable powders (WP) or liquids (EC), are sprayed onto the plants and the soil surface in various dosages, with a water application rate of 300 l/ha (converted) and with addition of wetting agent (0.2% to 0.3%). […]
(§3) If the testing is also to look at whether safeners can improve the tolerance of the crop plants for test substances, the following options are used for the application of the safener: • seeds of the crop plants are dressed with the safener substance prior to sowing (the amount of safener is stated as a percentage, based on the seed weight) • crop plants are sprayed with the safener, with a defined application rate per hectare, prior to application of the test substances (typically 1 day before the test substances are applied) • the safener is applied together with the test substance in the form of a tank mix (the amount of safener is reported in g/ha or as a proportion relative to the herbicide).
(§4) By comparing the effect of test substances on crop plants which have been treated with safener and without safener it is possible to assess the effect of the safener substance.

[3] = system: Spring barley; assay: as above
Method: as §2, §3, §4

[4] = system: Myzus persicae; assay: Myzus persicae test, activity boost through ammonium/phosphonium salts and penetration promoters (Example 11)
Method: For application with ammonium salts or phosphonium salts and penetration promoters (rapeseed oil methyl ester 500 EW) these are in each case added in a concentration of 1000 ppm to the spray liquor.
as §1

[5] = system: Maize - Arsenal; assay: Greenhouse container trials with maize, pre-emergence, with and without safener; details: 28 days after application
Excerpt: Seeds of monocotyledonous and dicotyledonous weed plants and crop plants are placed in sandy loam soil in wood fibre pots or in plastic pots and are covered with earth. The test compounds, formulated as wettable powders (WP) or liquids (EC), are sprayed onto the soil surface in various dosages, with a water application rate of 300 l/ha (converted). The pots are then placed in a greenhouse under good growth conditions, and also, during the vegetation period, are placed outdoors, outside of the greenhouse, so that the plants are able to germinate and develop. 3 to 4 weeks after the trial plants have been treated, the effect of the products is rated visually in comparison to untreated controls (herbicidal effect in percent: 100% effect=plants have died, 0% effect=like control plants).
as §3, with “weight) • pots containing the crop plants” for “weight) • crop plants”, “test substances • the” for “test substances (typically 1 day before the test substances are applied) • the”
as §4

[6] = 20 ppm, no additive, bell pepper plants

With `COCC1(C)NC(=O)C(c2c(C)ccc(-c3ccc(Cl)cc3)c2C)=C1O` (stereo not shown) [I-a-7] the “Destruction (%) after 6 d +AS 1000 ppm” value ([1]; 20 ppm active compound) was 10%, the “Destruction (%) after 6 d +AS +RME 1000 ppm each” value ([1]; 20 ppm active compound) was 90% and the “Destruction (%) after 6 d +RME 1000 pm” value ([1]; 20 ppm active compound) was 70%. For the same compound, the “Destruction (%) after 6 d” value ([1]; 20 ppm active compound) was 5%.

For `CCc1cc(-c2ccc(C)cc2)cc(C)c1C1=C(OC(=O)C(C)C)C(C)(COC)NC1=O` (stereo not shown) [I-b-5], the “Spring wheat observed (%)” value ([2]; 50 g a.i./ha) was 10%, the “Spring wheat observed (%)” value ([2]; 100 g a.i./ha) was 15% and the “Spring barley observed (%)” value ([3]; 25 g a.i./ha, 28 days after application) was 10%. For the same compound, the “Spring barley observed (%)” value ([3]; 50 g a.i./ha, 10 days after application) was 50%, the “Spring barley observed (%)” value ([3]; 100 g a.i./ha, 10 days after application) was 65% and the “Spring barley observed (%)” value ([3]; 100 g a.i./ha, 28 days after application) was 30%.

`COCC1(C)NC(=O)C(c2cc(-c3ccc(Cl)cc3)ccc2C)=C1O` (stereo not shown) [I-a-1] was tested, and the “Destruction (%) after 6 d” value ([4]; 4 ppm, +AS 1000 ppm) was 0%, the “Destruction (%) after 6 d” value ([4]; 4 ppm, +AS +RME 1000 ppm each) was 75% and the “Destruction (%) after 6 d” value ([4]; 4 ppm, +RME 1000 pm) was 35%. For the same compound, the “Destruction (%) after 6 d” value ([4]; 4 ppm, no additive, bell pepper plants) was 0%, the “Destruction (%) after 6 d” value ([4]; 20 ppm, +AS 1000 ppm) was 65% and the “Destruction (%) after 6 d” value ([4]; 20 ppm, +AS +RME 1000 ppm each) was 99%. The “Destruction (%) after 6 d” value ([4]; 20 ppm, +RME 1000 pm) was 98%, the “Destruction (%) after 6 d” value [4, 6] was 0% and the “Destruction (%) after 6 d +AS 1000 ppm” value ([1]; 20 ppm active compound) was 20%. For the same compound, the “Destruction (%) after 6 d +AS +RME 1000 ppm each” value ([1]; 20 ppm active compound) was 85%, the “Destruction (%) after 6 d +RME 1000 pm” value ([1]; 20 ppm active compound) was 5% and the “Destruction (%) after 6 d” value ([1]; 20 ppm active compound) was 5%. The “Destruction (%) after 6 d +AS 1000 ppm” value ([1]; 100 ppm active compound) was 90%, the “Destruction (%) after 6 d +AS +RME 1000 ppm each” value ([1]; 100 ppm active compound) was 90% and the “Destruction (%) after 6 d +RME 1000 pm” value ([1]; 100 ppm active compound) was 90%. The “Destruction (%) after 6 d” value ([1]; 100 ppm active compound) was 60%.

`CCOC(=O)OC1=C(c2c(C)cc(-c3ccc(Cl)cc3)cc2CC)C(=O)NC1(C)COC` (stereo not shown) [I-c-1] was tested, and the “Maize - Arsenal observed (%)” value ([5]; 50 g a.i./ha) was 55%.

For `COCC1(C)NC(=O)C(c2cc(-c3ccc(F)cc3)ccc2C)=C1O` (stereo not shown) [I-a-12], the “Destruction (%) after 6 d” value ([4]; 20 ppm, +AS 1000 ppm) was 0%, the “Destruction (%) after 6 d” value ([4]; 20 ppm, +AS +RME 1000 ppm each) was 99% and the “Destruction (%) after 6 d” value ([4]; 20 ppm, +RME 1000 pm) was 45%. The “Destruction (%) after 6 d” value [4, 6] was 10%, the “Destruction (%) after 6 d” value ([4]; 100 ppm, +AS 1000 ppm) was 98% and the “Destruction (%) after 6 d” value ([4]; 100 ppm, +AS +RME 1000 ppm each) was 99%. The “Destruction (%) after 6 d” value ([4]; 100 ppm, +RME 1000 pm) was 99% and the “Destruction (%) after 6 d” value ([4]; 100 ppm, no additive, bell pepper plants) was 85%.

For `CCc1cc(-c2ccc(Cl)cc2)cc(CC)c1C1=C(OC(=O)C(C)C)C(C)(COC)NC1=O` (stereo not shown) [I-b-2], the “Maize - Arsenal observed (%)” value ([5]; 25 g a.i./ha) was 40% and the “Maize - Arsenal observed (%)” value ([5]; 50 g a.i./ha) was 50%.
